Measured values: paper PMC6882436 (Journal of Extracellular Vesicles, 2019)

Target: T1, eGFP-CD82 (KAI1/CD82) (Homo sapiens, UniProt P27701)
T1 sequence (P27701 1-267): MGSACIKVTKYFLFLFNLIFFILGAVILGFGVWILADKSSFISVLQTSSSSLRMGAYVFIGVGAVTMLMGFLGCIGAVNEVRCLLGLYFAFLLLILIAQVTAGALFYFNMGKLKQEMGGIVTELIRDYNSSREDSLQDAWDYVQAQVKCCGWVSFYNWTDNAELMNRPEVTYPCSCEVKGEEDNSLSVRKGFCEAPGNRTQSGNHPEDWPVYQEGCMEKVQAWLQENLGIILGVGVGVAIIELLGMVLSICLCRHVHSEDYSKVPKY
Test: microscale thermophoresis, eGFP fluorescence, cell lysate
Type: binding

CC(C)CCC[C@@H](C)[C@H]1CC[C@H]2[C@@H]3CC=C4C[C@@H](O)CC[C@]4(C)[C@H]3CC[C@]12C [cholesterol]
Kd: 5.89 µM
